Earlier results in article PMC12299598 (Pharmaceuticals, 2025).
Like-named read-outs stand apart in the source and are kept apart here.

Legend:
BTK = conditions: lower than ibrutinib
[1] = parameters: method as in PMID 38955074
[2] = test system: patients exposed to ibrutinib
[3] = test system: patients treated with ibrutinib; parameters: method as in PMID 29419429
CYP3A4 = test system: CYP3A4; parameters: method as in PMID 1764870

## Nc1ncnc2c1c(-c1ccc(Oc3ccccc3)cc1)nn2C1CCCN(C(=O)C(O)CO)C1 (stereo not shown) [dihydrodiol metabolite]
BTK
  BTK inhibitory activity relative to ibrutinib: 15 fold

## C=CC(=O)N1CCC[C@@H](n2nc(-c3ccc(Oc4ccccc4)cc3)c3c(N)ncnc32)C1 [ibrutinib]
[1]
  Permeability: high
  Solubility: low
[2]
  Cardiovascular deaths linked to ibrutinib: 303
[2]; CNS events and heart failure
  Mortality rate of cardiovascular ADRs: 20%
[2]; supraventricular and ventricular arrhythmias
  Mortality rate of cardiovascular ADRs: 8%
[2]; supraventricular arrhythmias with concurrent CNS events
  Mortality rate: 28.8%
Fasting conditions
  Absolute oral bioavailability: 3.9%
Oral administration
  Time to peak concentration: 1 to 2 h
With standard breakfast
  Absolute oral bioavailability: 8.4%
[3]; front-line ibrutinib
  Toxicity leading to discontinuation: arthralgia: 41.6%
  Toxicity leading to discontinuation: atrial fibrillation: 25%
  Toxicity leading to discontinuation: rash: 16.7%
[3]; relapsed/refractory population
  Toxicity leading to discontinuation: atrial fibrillation: 12.3%
  Toxicity leading to discontinuation: bleeding: 9%
  Toxicity leading to discontinuation: diarrhea: 6.6%
  Toxicity leading to discontinuation: infection: 10.7%
  Toxicity leading to discontinuation: pneumonitis: 9.9%

## COc1ccc2[nH]c([S+]([O-])Cc3ncc(C)c(OC)c3C)nc2c1 (stereo not shown) [omeprazole]
CYP3A4
  CYP3A4 inhibitor strength: weak
